Measurements from US20160176894A1, “TAXANE AND ABEO-TAXANE ANALOGS” (Arbor Therapeutics, LLC, priority 2013, published 2016).
Where two headings read alike, the source gives them in different places.

Experiments:
CCRF-CEM (CEM) cells = test: MTT-based cytotoxicity assay, CEM; type: cell-based, human; details: sensitive parental line
Source text: (§1) These lines included a uterine sarcoma line, MES-SA. (Harker, W. G.; MacKintosh, F. R.; Sikic, B. I., Development and characterization of a human sarcoma cell line, MES-SA, sensitive to multiple drugs. Cancer Res. 1983, 43, 4943-4950), and its doxorubicin-resistant subline, MES-SA/DxS. (Harker, W. G.; Sikic, B. I., Multidrug (pleiotropic) resistance in doxorubicin-selected variants of the human sarcoma cell line MES-SA. Cancer Res. 1985, 45, 4091-4096). […] However, resistance to bleomycin, cisplatin, carmustine, 5-fluorouracil or methotrexate is not observed. MES-SA/Dx5 cells express high levels of ABCB 1 (MDR1) mRNA and its gene product, the P-glycoprotein. MES-SA and MES-SA/Dx5 were purchased from the American Type Culture Collection (ATCC, Manassas, Va.).
(§2) The second set of cells tested, CCRF-CEM or simply CEM, were derived from the blood of a patient with acute lymphobiastic leukemia. (Foley, G. E.; Lazarus, H.; Farber, S.; Uzman, B. G.; Boone, B. A.; McCarthy, R. E., Continuous Culture of Human Lymphoblasts from Peripheral Blood of a Child with Acute Leukemia. Cancer 1965, 18, 522-529). The subline CEM/VLB100 was developed to be resistant to up to vinblastine at 100 ng/ml. (Beck, W. T.; Mueller, T. J.; Tanzer, L. R., Altered surface membrane glycoproteins in Vinca alkaloid-resistant human leukemic lymphoblasts. Cancer Res. 1979, 39, 2070-2076). Drug resistance is achieved by overexpression of the MDR1 gene. Resistance in the CEM subline designated CEM/VM-1-5, however, is “atypical.” (Danks, M. K.; Yalowich, J. C.; Beck, W. T., Atypical multiple drug resistance in a human leukemic cell line selected for resistance to teniposide (VM-26). Cancer Res. 1987, 47, 1297-1301). The classes of drugs included in the “classic” multiple drug resistance phenotype are Vinca alkaloids, anthracyclines, epipodophyllotoxins and antibiotics. However, CEM/VM-1-5 cells retain sensitivity to the Vinca alkaloids despite resistance and cross-resistance to etoposide, anthracyclines and mitoxantrone. (Danks, M. K.; Schmidt, C. A.; Cirtain, M. C.; Suttle, D. P.; Beck, W. T., Altered catalytic activity of and DNA cleavage by DNA topoisomerase II from human leukemic cells selected for resistance to VM-26. Biochemistry 1988, 27, 8861-8869). Resistance in CEM/VM-1-5 cells is effected by over expression of the ABCC1 (MRP1) gene. CEM, CEM/VLB100 and CEM/VM-1-5 cells were obtained from Dr. WT Beck, University of Illinois at Chicago.

CEM/VLB100 cells = test: MTT-based cytotoxicity assay, CEM/VLB100; type: cell-based, human; details: for Degree of resistance (CEM/VLB100): IC50 of the resistant line divided by IC50 of sensitive CEM cells; for IC50: vinblastine-resistant subline (MDR1)
Description: as §2

[1] = tested on: MES-SA/Dx5 doxorubicin-resistant subline; test: MTT-based cytotoxicity assay, MES-SA/Dx5; type: cell-based, human; details: for Degree of resistance (MES-SA/Dx5): IC50 of the resistant line divided by IC50 of sensitive MES-SA cells; for IC50: MTT, multidrug resistant subline (MDR1/P-glycoprotein)
Source text: as §1

[2] = tested on: MES-SA uterine sarcoma line; test: MTT-based cytotoxicity assay, MES-SA; type: cell-based, human; details: sensitive parental line
Source text: as §1

HCT-15 (MDR+) = test: MTS proliferation assay, HCT-15; type: cell-based; details: read-out: MTS-6: 72 hr proliferation IC50, HCT-15
Description: (§3) Day 1: Cells were plated in appropriate growth medium at 5×10^3 per well in 100 μL in 96 well tissue culture plates, Falcon, one plate for each drug to be tested. Column 1 was blank; it contained medium, but no cells. The plates were incubated overnight at 37° C. in 5% CO2 to allow attachment. Day 2: Drug diluted in culture media was added to the cells at a concentration of 0.005 nM to 10 μM in quadruplicate. After 48-72 hours of drug exposure, the MTS agent was added to all wells and incubated 1-6 hrs (37° C., 5% CO2), depending on cell type, as per CellTiter 96® AQueous Non-Radioactive Cell Proliferation Assay (MTS), Promega. Plates were processed using a Bio-Tek Synergy HT Multi-detection microtiter plate reader at 490 nanometer wavelength and data were processed with KC4V.3 software. Data plots of drug concentration vs. absorbance were plotted and IC50 values were extrapolated for each of the tested compounds.

MV522 = test: MTS proliferation assay, MV522; type: cell-based; details: read-out: MTS-6: 72 hr proliferation IC50, MV522
Description: as §3

CEM/VM-1-5 cells = test: MTT-based cytotoxicity assay, CEM/VM-1-5; type: cell-based, human; details: for Degree of resistance (CEM/VM-1-5): IC50 of the resistant line divided by IC50 of sensitive CEM cells; for IC50: MTT, atypical MDR subline (ABCC1/MRP1)
Description: as §2

[3] = tested on: cancer cell lines, both MDR expressing and non-MDR expressing; test: MTS proliferation assay, cell line panel (general statements); type: cell-based
Description: as §3

A2680-DXR1 (MDR+) = test: MTS proliferation assay, A2680-DXR1; type: cell-based; details: 72 hr, read-out: MTS-6: 72 hr proliferation IC50, A2680-DXR1
Description: as §3

22Rv1 = test: MTS proliferation assay, 22Rv1; type: cell-based; details: read-out: MTS-6: 72 hr proliferation IC50, 22Rv1
Description: as §3

A2780-A5 = test: MTS proliferation assay, A2780-A5; type: cell-based; details: read-out: MTS-6: 72 hr proliferation IC50, A2780-A5
Description: as §3

tubulin = tubulin protein assembly assay; type: biochemical; details: for ED50/ED50 (Paclitaxel): ratio to paclitaxel; for EC50: tubulin assembly, read-out: ED50 (the source's name)
MDAH2774 = test: MTS proliferation assay, MDAH2774; type: cell-based; details: read-out: MTS-6: 72 hr proliferation IC50, MDAH2774
Description: as §3

MESSA/DOX = test: MTS proliferation assay, MESSA/DOX; type: cell-based; details: Homo sapiens, MDR positive
Description: as §3

MV522/Mdr1 = test: MTS proliferation assay, MV522/Mdr1; details: read-out: IC50 MV522/Mdr1
Description: as §3

MDAMB435s = test: MTS proliferation assay, MDAMB435s; type: cell-based; details: Homo sapiens, MDA-MB-435S, MDR negative, extrapolated outside tested range
Description: as §3

SKNAS = test: MTS proliferation assay, SKNAS; type: cell-based; details: Homo sapiens, SK-N-AS, MDR negative, extrapolated outside tested range
Description: as §3

HT29 = test: MTS proliferation assay, HT29; type: cell-based; details: Homo sapiens, HT-29, MDR negative, extrapolated outside tested range
Description: as §3

DU145 = test: MTS proliferation assay, DU145; type: cell-based; details: Homo sapiens, DU-145, MDR negative, extrapolated outside tested range
Description: as §3

KB = test: MTS proliferation assay, KB; type: cell-based; details: Homo sapiens, MDR negative, extrapolated outside tested range
Description: as §3

KBV = test: MTS proliferation assay, KBV; type: cell-based; details: MDR positive
Description: as §3

| Molecule | IC50 (CCRF-CEM (CEM) cells) [nM] | Degree of resistance (CEM/VLB100) (CEM/VLB100 cells) | IC50 (CEM/VLB100 cells; MTT) [nM] | Degree of resistance (MES-SA/Dx5) [1] | IC50 [1] [nM] | IC50 [2] [nM] | Degree of resistance (CEM/VM-1-5) (CEM/VM-1-5 cells) | IC50 (CEM/VM-1-5 cells) [nM] | ED50/ED50 (Paclitaxel) (tubulin) | EC50 (tubulin) [nM] | IC50 (CEM/VM-1-5 cells; Homo sapiens) [nM] | IC50 ([1]; Homo sapiens, MES-SA/Dx5) [nM] | IC50 ([2]; Homo sapiens, MES-SA) [nM] | further results |
| --- | --- | --- | --- | --- | --- | --- | --- | --- | --- | --- | --- | --- | --- | --- |
| C=CC1OC2CC3OCC3(OC(C)=O)C3C(OC(=O)c4ccccc4)C4(O)CC(OC(=O)C(O)C(CC(C)C)NC(=O)OC(C)(C)C)C(C)=C(C(OC(C)=O)C(O1)C23C)C4(C)C (mixture of isomers) [10-αTX (14a.2)] | 14 ± 5 | 3 ± 0.6 | 43 ± 23 | 1.1 ± 0.3 | 34 ± 24 | 30 ± 14 |  |  |  |  |  |  |  |  |
| C=CC1OC2CC3OCC3(OC(C)=O)C3C(OC(=O)c4ccccc4)C4(C(C)(C)O)CC(OC(=O)C(O)C(CC(C)C)NC(=O)OC(C)(C)C)C(C)=C4C(OC(C)=O)C(O1)C23C (stereo not drawn) [10-αAT (15a.2)] | 5 ± 3 | 4 ± 0 | 19 ± 9 | 1.6 ± 0.8 | 15 ± 8 | 9.5 ± 0.7 | 1.3 ± 1.4 | 5 ± 4 | 0.53 | 1580 ± 460 |  |  |  | IC50 (HCT-15 (MDR+); 72 hr): 2.4 nM; IC50 (MV522; 72 hr): 3.5 nM; IC50 [3]: < 1000 nM; IC50 (A2680-DXR1 (MDR+)): 15 nM; IC50 (22Rv1; 72 hr): 5.7 nM; IC50 (A2780-A5; 72 hr): 0.282 nM; affinity for tubulin (in words) (tubulin; compared to several recognized tubulin binding agents): surprisingly great affinity for tubulin; IC50 (MDAH2774; 72 hr): 0.18 nM |
| C=C[C@H]1O[C@H]2C[C@H]3OC[C@@]3(OC(C)=O)[C@H]3[C@H](OC(=O)c4ccccc4)[C@]4(C(C)(C)O)C[C@H](OC(=O)[C@H](O)[C@H](CC(C)C)NC(=O)OC(C)(C)C)C(C)=C4[C@@H](OC(C)=O)[C@H](O1)[C@]23C [10-βAT (15b.2)] | 112 ± 60 | 4 ± 0.3 | 453 ± 293 | 0.75 ± 0.07 | 328 ± 173 | 432 ± 261 | 0.9 ± 0.5 | 77 ± 6 |  |  |  |  |  |  |
| C=CC1OC2CC3OCC3(OC(C)=O)C3C(OC(=O)c4ccccc4)C4(O)CC(OC(=O)C(O)C(CC(C)C)NC(=O)OC(C)(C)C)C(C)=C(C(OC(C)=O)C(O1)C23C)C4(C)C (stereo not drawn) [10-βTX (14b.2), 10-beta taxane acrolein acetal] |  | 3 ± 1 |  | 1.2 ± 0.5 |  |  | 1.2 ± 0.3 |  |  |  | 9 ± 1 | 36 ± 34 | 28 ± 16 | IC50 (CCRF-CEM (CEM) cells; Homo sapiens, CCRF-CEM): 7.5 ± 0.7 nM; IC50 (CEM/VLB100 cells; Homo sapiens, CEM/VLB100, MTT): 22 ± 11 nM |
| CC(=O)O[C@@]12CO[C@@H]1C[C@H](O)[C@@]1(C)C(=O)[C@H](O)C3=C(C)[C@@H](OC(=O)[C@H](O)[C@@H](NC(=O)OC(C)(C)C)c4ccccc4)C[C@@](O)([C@@H](OC(=O)c4ccccc4)[C@H]21)C3(C)C [Docetaxel] |  |  |  |  |  |  |  |  | 1.07 | 3180 ± 450 |  |  |  |  |
| CC(=O)O[C@H]1C(=O)[C@@]2(C)[C@H]([C@H](OC(=O)c3ccccc3)[C@]3(O)C[C@H](OC(=O)[C@H](O)[C@@H](NC(=O)c4ccccc4)c4ccccc4)C(C)=C1C3(C)C)[C@]1(OC(C)=O)CO[C@@H]1C[C@@H]2O [Paclitaxel] |  |  | 3030 | 3105 ± 2416 |  |  | 4 | 8 |  |  | < 11 | 19400 ± 204 | 9 ± 7 | IC50 (HCT-15 (MDR+); Homo sapiens, HCT-15, 72 hr): 311 nM; IC50 (MV522; MV522, 72 h): 1.71 nM; IC50 (MESSA/DOX): ≥ 500 nM; IC50 (MV522/Mdr1): ≥ 500 nM; IC50 (A2680-DXR1 (MDR+)): 3580 nM; IC50 (22Rv1; Homo sapiens, 22Rv1, 72 h): 1.7 nM; IC50 (MDAMB435s): < 0.002 nM; IC50 (A2780-A5; 72 h): < 0.002 nM; IC50 (SKNAS): < 0.002 nM; IC50 (MDAH2774; Homo sapiens, MDAH 2774, 72 h): 0.015 nM; IC50 (HT29): < 0.002 nM; IC50 (DU145): < 0.002 nM; IC50 (KB): < 0.002 nM; IC50 (KBV): ≥ 500 nM |
| CC[C@]1(O)C[C@@H]2CN(CCc3c([nH]c4ccccc34)[C@@](C(=O)OC)(c3cc4c(cc3OC)N(C)[C@H]3[C@@](O)(C(=O)OC)[C@H](OC(C)=O)[C@]5(CC)C=CCN6CC[C@]43[C@@H]65)C2)C1 [Vinblastine] |  | 255 ± 127 |  | 38.5 ± 0.7 |  |  | 1.2 ± 0.07 |  |  |  | 1.3 ± 0.9 | 43 ± 12 | […] | IC50 (CCRF-CEM (CEM) cells; Homo sapiens, CCRF-CEM): 1 ± 0.8 nM; IC50 (CEM/VLB100 cells; Homo sapiens, CEM/VLB100, MTT): 227 ± 77 nM |
| Doxorubicin | 14 | 150 | 2100 | 49 | 97 | 2 | 219 | 3060 |  |  |  |  |  |  |
